Measured values from patent publication JP2019019068A, “アリールアゾール化合物および有害生物防除剤” (Nippon Soda Co Ltd, priority 2017, dated 2019).

How the values were obtained:
[1] = tested on: striped flea beetle (キスジノミハムシ) adults; assay: Test Example 2: efficacy test against striped flea beetle (キスジノミハムシ), spray on bok choy seedlings; type: in vivo; conditions: Phyllotreta striolata, 168 h, sprayed on bok choy seedlings, 25 °C, 65% humidity, 7 days after release, 2 replicates, read-out: insecticidal rate
[2] = tested on: diamondback moth (コナガ) 2nd instar larvae; assay: Test Example 1: efficacy test against diamondback moth (コナガ), cabbage leaf dip; type: in vivo; conditions: Plutella xylostella, foliar, 72 h, cabbage leaf dipped 30 s, 25 °C, 60% humidity, 3 days after release, 2 replicates, read-out: insecticidal rate

## CCS(=O)(=O)c1cc(/C=N/OCC(F)(F)F)cnc1-c1ncc(C=C(Cl)C(F)(F)F)n1C [化合物番号1, (E)-6-(5-(2-chloro-3,3,3-trifluoroprop-1-en-1-yl)-1-methyl-1H-imidazol-2-yl)-5-(ethylsulfonyl)nicotinaldehyde O-(2,2,2-trifluoroethyl) oxime]
[1]
  mortality at 125 ppm: ≥ 80%
[2]
  mortality at 125 ppm: ≥ 80%
